{"source": "patent US7590493B2", "about": "“Methods for determining hepatotoxins” (priority 2000, dated 2009)", "key": {"[1]": {"conditions": "cited from earlier work"}, "[2]": {"conditions": "24 hours, cited from earlier work"}, "[3]": {"conditions": "in vivo; cited from earlier work"}, "[4]": {"test": "Inventors' rat studies: liver pathology and clinical chemistry"}, "c-fos, c-jun, c-myc": {"test_system": "c-fos, c-jun, c-myc", "conditions": "post dose, acute administration; cited from earlier work"}, "[5]": {"conditions": "cited from earlier work", "remark": "listed apart in the source"}, "[6]": {"conditions": "cited from earlier work", "remark": "listed apart in the source"}, "[7]": {"conditions": "amitriptyline 600 mg/kg oral, PB 80 mg/kg IP, cited from earlier work; for microsomal phosphatidylcholine content: 6-24 hr"}, "[8]": {"conditions": "single oral dose 600 mg/kg, cited from earlier work"}, "[9]": {"conditions": "single dose, within 24 hours (Fracasso 1990); cited from earlier work"}, "[10]": {"test_system": "human hepatoma cell lines", "conditions": "in vitro; cited from earlier work"}, "primary rat hepatocytes": {"test_system": "primary rat hepatocytes", "conditions": "in vitro; cited from earlier work"}}}
{"molecule": "C#C[C@]1(O)CC[C@H]2[C@@H]3CCc4cc(O)ccc4[C@H]3CC[C@@]21C", "note": "[17α-ethinylestradiol]", "values": [{"measurement": "bile flow", "setting": "[1]; after 3 days of drug administration", "value": "decrease"}, {"measurement": "plasma cholesterol and plasma triglyceride levels", "setting": "[1]; rat, in vivo", "value": "decrease"}, {"measurement": "plasma levels of bilirubin, bile salts, AST and ALT", "setting": "[1]; rat, in vivo", "value": "not changed"}]}
{"molecule": "S=C=Nc1cccc2ccccc12", "note": "[ANIT, alpha-naphthylisothiocyante]", "values": [{"measurement": "levels of total bilirubin, alkaline phosphatase, serum glutamic oxaloacetic transaminase and serum glutamic pyruvic transaminase", "setting": "[2]; 80 mg/kg oral in olive oil", "value": "significantly increased"}, {"measurement": "total bile flow", "setting": "[2]; 80 mg/kg oral", "value": "reduced"}, {"measurement": "liver weight vs control-treated", "setting": "[3]", "value": "significantly heavier"}, {"measurement": "serum ALT, gamma-glutamyl transpeptidase, total bilirubin, lipid peroxide and total bile acids", "setting": "[3]", "value": "significant increases"}]}
{"molecule": "O=C(CCN1CCN2CCCC2C1)N1c2ccccc2Sc2ccc(Cl)cc21", "note": "(stereo not shown) [AY-25329]", "values": [{"measurement": "mitosis rates / mitotic activity", "setting": "[4]; rat liver", "value": "increased"}, {"measurement": "glycogen levels", "setting": "[4]; rat liver, all rats examined", "value": "decreased"}]}
{"molecule": "CC(O)(CS(=O)(=O)c1ccc(F)cc1)C(=O)Nc1ccc(C#N)c(C(F)(F)F)c1", "note": "(stereo not shown) [Bicalutamide]", "values": [{"measurement": "hepatocellular hypertrophy", "setting": "[4]; rat", "value": "minor degree"}, {"measurement": "mitosis rates / mitotic activity", "setting": "[4]; rat liver", "value": "increase"}]}
{"molecule": "ClC(Cl)(Cl)Cl", "note": "[CCl4, carbon tetrachloride]", "values": [{"measurement": "time of peak hepatic mRNA level, c-fos", "setting": "c-fos, c-jun, c-myc", "value": "1 to 2", "unit": "h"}, {"measurement": "time of peak hepatic mRNA level, c-jun", "setting": "c-fos, c-jun, c-myc", "value": 3, "unit": "h"}, {"measurement": "time of peak hepatic mRNA level, c-myc", "setting": "c-fos, c-jun, c-myc", "value": 1, "unit": "h"}, {"measurement": "ALT and AST peak levels, increase", "setting": "[5]; 0.1, 1, 2, 3, 4 mL/kg ip, […] po, within 48 hours post dose", "value": "5-10 fold"}, {"measurement": "serum α-glutathione s-transferase (α-GST) levels", "setting": "[5]; 25 μL/kg po, as early as 2 hours", "value": "Significant increases"}]}
{"molecule": "CC(=O)O[C@]1(C(C)=O)CC[C@H]2[C@@H]3C=C(Cl)C4=CC(=O)[C@@H]5C[C@@H]5[C@]4(C)[C@H]3CC[C@@]21C", "note": "[CPA, cyproterone acetate]", "values": [{"measurement": "occurrence of S phase cells", "setting": "[6]; rat liver", "value": "increased"}, {"measurement": "DNA repair activity", "setting": "[6]; single oral dose 100 mg CPA/kg body weight, after 16 hours", "value": "continuous DNA repair activity was observed"}]}
{"molecule": "CCOC(=O)C(C)(C)Oc1ccc(Cl)cc1", "note": "[Clofibrate]", "values": [{"measurement": "hepatocellular alterations", "setting": "[4]; following early AST/ALT increases", "value": "dose-dependent"}, {"measurement": "mitosis rates / mitotic activity", "setting": "[4]; rat liver", "value": "increased"}, {"measurement": "AST and ALT levels", "setting": "[4]; rat, in vivo", "value": "early increases"}]}
{"molecule": "CCC1(c2ccccc2)C(=O)NC(=O)NC1=O", "note": "[PB, phenobarbital]", "values": [{"measurement": "microsomal phosphatidylcholine content", "setting": "[7]", "value": "increase"}]}
{"molecule": "CN(C)CCC=C1c2ccccc2CCc2ccccc21", "note": "[amitriptyline]", "values": [{"measurement": "aminolevulinic acid (ALA) activity", "setting": "[8]; 12 and 24 hours", "value": "marked increase"}, {"measurement": "cytochrome P450 (CYP450) content", "setting": "[8]", "value": "remained the same"}, {"measurement": "total heme and cytochrome b5 levels", "setting": "[8]", "value": "increased"}, {"measurement": "microsomal phosphatidylcholine content", "setting": "[7]", "value": "increase"}, {"measurement": "levels of GAT and PCT", "setting": "[7]", "value": "slightly affected"}, {"measurement": "levels of PPH and CPT", "setting": "[7]", "value": "significantly altered"}]}
{"molecule": "COc1ccc2c(c1)c(CC(=O)O)c(C)n2C(=O)c1ccc(Cl)cc1", "note": "[indomethacin]", "values": [{"measurement": "liver and renal microsomal enzymes, including CYP450", "setting": "[9]", "value": "reduce"}]}
{"molecule": "Nc1c2c(nc3ccccc13)CCCC2", "note": "[tacrine]", "values": [{"measurement": "cytotoxicity", "setting": "[10]", "value": "displayed cytotoxicity"}, {"measurement": "cytotoxicity", "setting": "primary rat hepatocytes", "value": "displayed cytotoxicity"}]}
